Results reported in US4442093A, “Method for administering 24,25-dihydroxycholecalciferol to persons suffering from hypercalcemia” (Kureha Kagaku Kogyo Kabushiki Kaisha, priority 1981, dated 1984).
Where two headings read alike, the source gives them in different places.

Experiments:
blood sugar level = experiment: Blood sugar in patients (Example 23); type: in vivo, human; settings: patients suffering from glycosuria
Experimental: Three patients shown in Table 17 were treated by oral administration of a daily dose of 4 to 6 micrograms of 24R,25-(OH)2 -D3 in a form of the soft capsule composition obtained in Example 6 for 3 continuous weeks. After the completion of administration, the patient was fasted for a night and their blood specimen was collected at 11:00 a.m. in the next morning.
Effectiveness of reducing blood sugar level (ERBS) is calculated from the […]

[1] = 30-day repeated oral administration toxicity (Example 26); type: in vivo, ICR mouse; settings: 1 mg/kg/day, 30 days
Experimental: 24R,25-(OH)2 -D3 was dissolved in Panacete® 810 containing 1% by weight of ethanol, and the solution was forcibly p.o. administered once a day for 30 continuous days to each male or female ICR mouse of the groups shown in Table 20 at each one of the daily dose rates also shown in Table 20.
As the control, Panacete 810 was solely and forcibly p.o. administered to the mice of the same strain once a day for 30 continuous days.

tumour = experiment: Anti-tumour experiments using mouse and rat as the host; type: in vivo
calcium level in serum [2] = settings: healthy dog, continuous injection 20 min into thyroid artery; cited from earlier work
calcium level in serum [3] = settings: dog with hyper-parathyreosis, thyroid arterial route; cited from earlier work
calcium level in serum [4] = settings: normal person, 250 micrograms oral; cited from earlier work
calcium level in serum [5] = settings: patients suffering from hypocalcemia; cited from earlier work
magnesium level in serum [6] = settings: thyroidectomized and parathyroidectomized rats, administered once; cited from earlier work
magnesium level in serum [7] = settings: bilateral nephrectomy rats; cited from earlier work

Compound: C=C1CC[C@H](O)C/C1=C/C=C1\CCC[C@]2(C)[C@@H]([C@H](C)CCC(O)C(C)(C)O)CC[C@@H]12 (stereo partly shown) [24,25-(OH)2 -D3, 24,25-dihydroxycholecalciferol]
- blood sugar level (blood sugar level): significant reduction of the blood sugar level was observed
- biochemical examination of the blood and autopsy [1]: any significant abnormal findings were not observed
- anti-tumour effect in vivo (tumour): anti-tumour effect of the compound was confirmed
- Calcium level in serum (calcium level in serum [2]): showed a temporary reduction
- Calcium level in serum (calcium level in serum [3]): did not change the dog's calcium level in serum
- Calcium level in serum (calcium level in serum [4]): did not cause the significant change of calcium level
- Calcium level in serum (calcium level in serum [5]): non of them reported the case where the calcium level in the patient's serum showed a significant change
- magnesium clearance (magnesium level in serum [6]): did not affect the magnesium level in serum thereof and the magnesium clearance thereof
- magnesium level in serum (magnesium level in serum [6]): did not affect the magnesium level in serum
- magnesium level in serum (magnesium level in serum [7]): did not affect significantly the magnesium level in serum
